This is an account of results in patent US20070010402A1, “Novel herbicides, usage thereof, novel thienopyrimidine derivatives, intermediates of the same, and process for production thereof” (NIHON NOHYAKU CO., LTD.,, priority 2002, published 2007).

One data set has as its system Scirpus juncoides. The data set can be described thus: Submerged foliar treatment test (Test Example 3). It is filed as in vivo. The settings on record: water depth 3 cm, cotyledon to 1-leaf stage, wettable powder, active ingredient 10 g/a, 28th day from the treatment. On the procedure: (§1) The herbicidal effect was evaluated in terms of herbicidal rate obtained from the following equation: Herbicidal rate (%)=[1−(Weight of weeds above the ground in a treated plot)/(Weight of weeds above the ground in a non-treated plot)]×100
(§2) and was expressed by herbicidal index according to the following criteria.
(§3) Alluvial soil from a paddy field was put in a resin-made vat having an area of 200 cm^2. After fertilization, seeds of Echinochloa oryzicola, Rotala indica and Scirpus juncoides were cast on the soil and uniformly covered with the soil, and water was poured onto the soil to keep a water depth of 3 cm. Then, cultivation was continued in a greenhouse, and when the weeds to be tested reached the cotyledon stage to 1-leaf stage, the wettable powder obtained in Formulation Example 1 was diluted with water and a predetermined amount thereof was added dropwise uniformly to the weeds by means of a pipette to give 10 g of the active ingredient per an are. Thereafter, cultivation was further continued in the greenhouse, and the herbicidal effect was examined on the 28th day from the treatment. The results obtained are shown in Table 9 (the compound numbers in Table 9 correspond to those in Tables 1 to 6).

In the next data set the test system is Echinochloa oryzicola. The data set can be described thus: Submerged foliar treatment test (Test Example 3). It counts as in vivo. Particulars: water depth 3 cm, cotyledon to 1-leaf stage, wettable powder, active ingredient 10 g/a, 28th day from the treatment. The procedure: as §1, §2, §3
The test system of the next data set is Rotala indica. The data set can be described thus: Submerged foliar treatment test (Test Example 3). Particulars: water depth 3 cm, cotyledon to 1-leaf stage, wettable powder, active ingredient 10 g/a, 28th day from the treatment. It is filed as in vivo. The procedure:
as §1, §2, §3

A further data set has as its system Echinochloa crus-galli. The data set is described as follows: Field foliar treatment test (Test Example 1). It is filed as in vivo. The settings on record: foliar spray at 1.0- to 2.0-leaf stage, wettable powder, active ingredient 10 g/a, 21st day from the treatment. On the procedure:
(§4) Alluvial soil from a field was put in a resin-made vat having an area of 200 cm^2. After fertilization, the seeds of Echinochloa crus-galli, Brassica juncea, and Ipomoea purpurea were cast on the soil and uniformly covered with the soil. Then, cultivation was continued in a greenhouse, and when the weeds to be tested reached the 1.0- to 2.0-leaf stage, the wettable powder obtained in Formulation Example 1 was diluted with water and a predetermined amount thereof was sprayed uniformly to the weeds by means of a small-sized power pressure spray to give 10 g of the active ingredient per an are. Thereafter, cultivation was further continued in the greenhouse, and the herbicidal effect was examined on the 21st day from the treatment. The results obtained are shown in Table 7 (the compound numbers in Table 7 correspond to those in Table 1 to 6). The herbicidal effect was evaluated in terms of herbicidal rate obtained from the following equation: Herbicidal rate (%)=[1−(Weight of weeds above the ground in a treated plot)/(Weight of weeds above the ground in a non-treated plot)]×100 and was expressed by herbicidal index according to the following criteria. [table]

The subject of a further data set is Ipomoea purpurea. The data set is described as follows: Field foliar treatment test (Test Example 1). The settings on record: foliar spray at 1.0- to 2.0-leaf stage, wettable powder, active ingredient 10 g/a, 21st day from the treatment. It counts as in vivo. On the procedure:
as §4

A further data set has as its system Brassica juncea. The data set is described as follows: Field foliar treatment test (Test Example 1). It counts as in vivo. Particulars: foliar spray at 1.0- to 2.0-leaf stage, wettable powder, active ingredient 10 g/a, 21st day from the treatment. The procedure:
as §4

In the case of `Cc1cc2c(Oc3cccc(C(F)(F)F)c3)nc(OCC(F)(F)F)nc2s1` [Compound No. 6-129, 6-methyl-2-(2,2,2-trifluoroethoxy)-4-[3-(trifluoromethyl)phenoxy]thieno[2,3-d]pyrimidine], the melting point (as a rule, the temperature of the solid-liquid transition) lay in the range of 124 to 125 °C. Besides, in the data set on Scirpus juncoides, the “Herbicidal effect Scirpus juncoides (herbicidal index)” value is 2 (31 to 50). The “Herbicidal effect Echinochloa oryzicola (herbicidal index)” value with Echinochloa oryzicola is 5 (91 to 100). Moreover, the “Herbicidal effect Rotala indica (herbicidal index)” value with Rotala indica was 4 (71 to 90).
Compound `Cc1cc2c(-c3cccc(C(F)(F)F)c3)nc(-c3ccc(C(F)(F)F)cc3)nc2s1` [Compound No. 6-18, 6-methyl-2-[4-(trifluoromethyl)phenyl]-4-[3-(trifluoromethyl)phenyl]thieno[2,3-d]pyrimidine] came in with a melting point of 134 to 136 °C. Further, in the data set on Scirpus juncoides, the “Herbicidal effect Scirpus juncoides (herbicidal index)” value is listed as 1 (6 to 30). The “Herbicidal effect Echinochloa oryzicola (herbicidal index)” value in the data set with Echinochloa oryzicola was 3 (51 to 70). For the same compound, the “Herbicidal effect Rotala indica (herbicidal index)” value with Rotala indica is reported as 4 (71 to 90).
`Cc1cc2nc(OC(C)C)nc(-c3cccc(C(F)(F)F)c3)c2s1` [Compound No. 6-231, 2-isopropoxy-6-methyl-4-[3-(trifluoromethyl)phenyl]thieno[3,2-d]pyrimidine]: the melting point was 106 °C. In addition, in the data set with Echinochloa crus-galli, the “Herbicidal effect Echinochloa crus-galli (herbicidal index)” value is 4 (71 to 90). Also, in the data set with Ipomoea purpurea, the “Herbicidal effect Ipomoea purpurea (herbicidal index)” value is reported as 5 (91 to 100). In the data set with Brassica juncea, the “Herbicidal effect Brassica juncea (herbicidal index)” value is 5 (91 to 100).
In the case of `Cc1cc2c(-c3cccc(C(F)(F)F)c3)nc(C#N)nc2s1` [Compound No. 6-10, 2-cyano-6-methyl-4-[3-(trifluoromethyl)phenyl]thieno[2,3-d]pyrimidine], the melting point is 121 to 122 °C. In addition, the “Herbicidal effect Scirpus juncoides (herbicidal index)” value with Scirpus juncoides is 4 (71 to 90). The “Herbicidal effect Echinochloa oryzicola (herbicidal index)” value in the data set with Echinochloa oryzicola is 5 (91 to 100). Also, the “Herbicidal effect Rotala indica (herbicidal index)” value in the data set on Rotala indica was 5 (91 to 100).
`Cc1cc2c(Oc3cccc(C(F)(F)F)c3)nc(CCC(F)(F)F)nc2s1` [Compound No. 6-130, 6-methyl-4-[3-(trifluoromethyl)phenoxy]-2-(3,3,3-trifluoropropyl)thieno[2,3-d]pyrimidine]: the melting point was 85 °C. For the same compound, the “Herbicidal effect Echinochloa crus-galli (herbicidal index)” value in the data set on Echinochloa crus-galli is given as 2 (31 to 50). For the same compound, the “Herbicidal effect Ipomoea purpurea (herbicidal index)” value in the data set with Ipomoea purpurea is recorded as 3 (51 to 70). The “Herbicidal effect Brassica juncea (herbicidal index)” value with Brassica juncea was 4 (71 to 90).
As to `Cc1cc2c(-c3cccc(Cl)c3)nc(Cl)nc2s1` [Compound No. 5-15, 2-chloro-4-(3-chlorophenyl)-6-methylthieno[2,3-d]pyrimidine], the melting point was 118 to 120 °C. Further, the “Herbicidal effect Scirpus juncoides (herbicidal index)” value with Scirpus juncoides was 3 (51 to 70). Moreover, the “Herbicidal effect Echinochloa oryzicola (herbicidal index)” value with Echinochloa oryzicola is 5 (91 to 100). Further, the “Herbicidal effect Rotala indica (herbicidal index)” value with Rotala indica is on record as 5 (91 to 100).
As for `Cc1cc2c(-c3cccc(C(F)(F)F)c3)nc(COCC(F)(F)F)nc2s1` [Compound No. 6-17, 6-methyl-2-[(2,2,2-trifluoroethoxy)methyl]-4-[3-(trifluoromethyl)phenyl]thieno[2,3-d]pyrimidine], the melting point fell in the range of 40 to 41 °C. In addition, the “Herbicidal effect Scirpus juncoides (herbicidal index)” value in the data set with Scirpus juncoides is 3 (51 to 70). The “Herbicidal effect Echinochloa oryzicola (herbicidal index)” value in the data set on Echinochloa oryzicola is recorded as 5 (91 to 100). The “Herbicidal effect Rotala indica (herbicidal index)” value in the data set on Rotala indica is 5 (91 to 100).
